Results taken from the RepoRT retention time repository.

Test: Agilent ZORBAX 300 SB-C18, 150 × 1 mm, 3.5 µm; A: water + 0.01% heptafluorobutyric acid; B: acetonitrile + 0.01% heptafluorobutyric acid; gradient (min/%B) 0/0 100/90
Settings: stereoisomer not certain

LC retention time	SMILES
10.6 min	CC(=O)Nc1ccc(CC(C(=O)O)c2ccccc2)cc1 (stereo not given)
20.9 min	CCCCCCCCN1C2=C(C(=O)CC(C)(C)C2)C(c2ccccc2)C2=C1CC(C)(C)CC2=O
15.1 min	COC(=O)COC(=O)c1ccccc1NC(=O)c1ccccc1
9.55 min	Cn1c(C2CCCCC2)nc2ccccc21
14.9 min	CCCCCCCNC(=O)c1ccc(OC(C)=O)cc1
14.3 min	CN(C)c1ccc(C=NNc2nc3ccccc3c(=O)n2-c2ccccc2)cc1
1.55 min	CC(=O)NC(NC(C)=O)C(O)C(O)C(O)C(O)CO (stereo not given)
9.35 min	CCCNC(=O)c1ccccc1N
7.8 min	CC(=O)NC(Cc1c[nH]c2ccccc12)C(N)=O (stereo not given)
11.5 min	c1cncc(CN=Nc2nc(N3CCCCC3)nc(N3CCCCC3)n2)c1
6.48 min	CN1CCNCC1
9.55 min	O=C(CCCCCN1C(=O)c2ccccc2C1=O)NCc1ccccn1
5.98 min	Nc1ncnc2[nH]ncc12
15.8 min	O=C(NCCCn1c2ccccc2c2ccccc21)Nc1ccccc1
6.98 min	CN1CC(=O)N(c2cccc(N)c2)C1=O
5.83 min	Nc1ncccn1
9.05 min	NC(=O)c1cc2ccccc2o1
1.67 min	O=S(=O)(O)CCN1CCOCC1
11.1 min	Cc1nc2ccccc2nc1N=C(N)NC(=O)c1ccccc1
2.25 min	Nc1cc(=O)[nH]c(=S)[nH]1
8.55 min	CN(C)CCNC1=CC(=O)CC(c2ccccc2)C1 (stereo not given)
13.9 min	CC1=NC(=O)NC(c2ccccc2)C1C(=O)OC(C)C(C)(C)C (stereo not given)
7.12 min	c1cc(C2=NC(c3ccncc3)C(c3ccncc3)N2)ccn1 (stereo not given)
12 min	c1ccc2[nH]c(CCn3c4c(c5ccccc53)CCCC4)nc2c1
8.46 min	Nc1cc[n+](Cc2ccccc2)cc1

LC retention time	SMILES
9.29 min	c1ccc(-c2cccc(-c3ccccn3)n2)nc1
7.84 min	CC(C)NCCN(CCNC(C)C)CCNC(C)C
8.48 min	NNc1cccc2ncccc12
4.72 min	CCOC(N)=O
14.6 min	c1ccc2c(c1)[nH]c1ccccc12
6.11 min	COCc1cc(=O)n2[nH]c(NC(C)=O)nc2n1
6.77 min	O=C1CCCN1CCc1ccccn1
9.33 min	CC(c1ccccc1)N1CNc2c(c(=O)[nH]c(=O)n2Cc2ccccc2)C1 (stereo not given)
8.08 min	Nc1cccc2cc[nH]c12
8.49 min	Cn1c(=O)n(C)c2cc(N3CCCCC3)c(N)cc21
6.22 min	CN(C)c1c[nH]c(=O)[nH]c1=O
1.66 min	O=C(O)CNC(CO)(CO)CO
7.17 min	N=C(N=C(N)N)N1CCSCC1
14.1 min	CC(C)CC1(C)NC(=S)N(c2ccccc2)N1 (stereo not given)
9.59 min	Cc1ccc(-c2nn[nH]n2)cc1
13.3 min	Nc1ccccc1C(=O)NN=Cc1cccc2ccccc12
16.9 min	CCOC(=O)c1ccc(NC(=O)C(c2ccccc2)c2ccccc2)cc1
13 min	N=c1oc2ccccc2cc1C(=O)Nc1ccc(Oc2ccccc2)cc1
14.5 min	CCCCc1c(O)c2ccccc2n(-c2ccccc2)c1=O
8.91 min	CCN(Cc1ccncc1)C(=S)Nc1ccccc1
6.8 min	Cc1ccnc(C)c1
18.6 min	COc1ccc(C2N(c3ccccc3)CCN2c2ccccc2)cc1
10.5 min	CCCCN1CCCCC1C(=O)Nc1c(C)cccc1C (stereo not given)
11 min	c1ccc(-c2nc(-c3cccnc3)[nH]c2-c2ccccc2)cc1
12.5 min	CC(C)c1ccccc1NC(=S)NCCN1CCN(C(=S)Nc2ccccc2C(C)C)CC1

LC retention time	SMILES
9.09 min	CC(C)(C)NCC(O)COc1nsnc1N1CCOCC1 (stereo not given)
7.43 min	CNCc1ccccc1
16.6 min	CCCCCCCCCC(=O)N(C)C
6.35 min	CC(=O)CNC(C)(C)C
17.6 min	Cc1ccc(N2C(=O)CC(N(CCc3ccccc3)C(=S)Nc3cccc(C)c3)C2=O)cc1 (stereo not given)
7.49 min	COC(=O)CCC1CCCNC1 (stereo not given)
3.44 min	Nc1ccncn1
8.99 min	Cc1ccc2nc3nc(C)cc(C)c3c(N)c2c1
8.54 min	NCCCN1CCc2ccccc21
8.94 min	CC1=NN(c2ccc(C)cc2)C(=O)C1C=O (stereo not given)
9.93 min	CCn1c(C)cc(C=O)c1C
5.98 min	CSC1=NCCN1
17.7 min	CC(C)OC(C)n1cccc1-c1ccccc1 (stereo not given)
10.4 min	Nc1nc(=Nc2ccccc2)n2c(n1)sc1ccccc12
9.67 min	CSC1=NC(C)(C)Cc2c(C)cccc21
16.3 min	CN1c2ccccc2CCc2cc(C=O)ccc21
6.91 min	Cc1cc(N)cc(C)c1O
12.9 min	CC(=O)c1cccc(NC(=O)Nc2ccc(C)cc2)c1
11.3 min	CN(C)CCCN1c2ccccc2Sc2ccccc21
6.83 min	Cc1cc(=O)cc(C)n1C
16.1 min	OC(Cc1c[nH]c2ccccc12)(c1ccccc1)c1ccccc1
7.03 min	CNCCCCCCNC
7.12 min	CCN(CC)CC
14.1 min	Cc1nc2ccccc2nc1COc1ccc2c(c1)OCO2
14.1 min	Cc1cc(C)c2c(=O)n(CC(=O)NCCCc3ccccc3)c(=O)n(C)c2n1

LC retention time	SMILES
16.9 min	CC(C)c1ccc(C=C2Nc3ccccc3C2=O)cc1
6.61 min	C1CCCNCC1
16.9 min	O=C(NN=Cc1ccc(OCc2ccccc2)cc1)c1ccc(-c2ccccc2)cc1
12.5 min	Cc1cc(C(=O)O)c(C)n1CCc1c[nH]c2ccccc12
12.2 min	O=c1[nH]c2ccccc2n1CCOc1ccccc1
7.31 min	Nc1ccc(N2CCCC2=O)cc1
16.6 min	c1ccc2c3c([nH]c2c1)CCCCC3
6.67 min	O=C(O)C1(c2ccccc2)CCCCN1 (stereo not given)
10.4 min	Cc1cc(C)c(N)c(C(=O)O)c1
11.2 min	O=c1c(C=NCc2ccco2)c(NCc2ccco2)nc2ccccn12
11.4 min	CCOC(=O)CN1C(=O)N(C)Cc2ccccc21
8.07 min	S=C1NCN(C2CCCCC2)CN1
8.97 min	Cc1cn(C2CC(O)C(CO)O2)c(=O)[nH]c1=O (stereo not given)
11.6 min	O=C(CCCCCN1C(=O)c2ccccc2C1=O)Nc1cccc(C(=O)O)c1
12.7 min	Cc1ccc(C)n1-c1ccccc1CO
5.88 min	O=C(O)CC(CC(=O)O)c1ccccn1
8.48 min	CC(=O)N1CCc2cc(C(=O)O)ccc21
18 min	CCCOC(C)n1cccc1-c1ccccc1 (stereo not given)
8.28 min	CC(NC(=O)c1cccnc1)C(=O)N1CCCCC1 (stereo not given)
12.7 min	Cc1cc(C=NNC(N)=S)c(C)n1-c1ccccc1
9 min	C=CCC1NC(C)(C)Cc2ccccc21 (stereo not given)
10.8 min	CCNc1ccccc1C(=O)O
8.89 min	Nc1ccc2[nH]c3c(c2c1)CCCC3
10.2 min	CCn1c2ccccc2c2cc(CNC)ccc21
13.8 min	CCCCN1CNC(=S)N(CCc2ccccc2)C1

LC retention time	SMILES
14.5 min	COc1ccc(C=CC(=O)c2ccccc2)cc1OC
10.1 min	COc1ccc(NC(=O)c2cc3ccccc3oc2=N)cc1
14.4 min	S=c1[nH]c(-c2ccccc2)c(-c2ccccc2)n1-c1ccccc1
8.03 min	O=c1c2ccccc2ncn1Cc1ccncc1
15.9 min	COc1cc(C=CC(=O)c2ccc(C)cc2)cc(OC)c1OC
10.5 min	O=C(CC1COc2ccccc2O1)N1CCOCC1 (stereo not given)
11.9 min	CC(C)CNc1c(N)c(=O)oc2ccccc12
12.6 min	CC1=NC(=O)NC(c2ccccc2)C1C(=O)OCc1ccccc1 (stereo not given)
6.89 min	Cc1ccncn1
14.3 min	O=C(O)CCn1c2c(c3ccccc31)CCCC2
8.2 min	NCCCOc1ccccc1
6.9 min	CC(=O)Nc1ccc(NC(=O)CCC(=O)O)cc1
9.9 min	S=C(NN=Cc1cccnc1)Nc1ccccc1
8.82 min	Cc1cc(C)c(-c2csc(N)n2)c(C)c1
8.51 min	CC(C)C[NH2+]C(CC(=O)O)c1ccccc1 (stereo not given)
8.79 min	C=CCC(N)(CC=C)C1=CC(CC(=C)C)NC(CC(=C)C)C1 (stereo not given)
8.52 min	CCNC(=O)c1ccc(CN2CCc3ccccc3C2)cc1
8.92 min	Cc1c(N=Cc2ccncc2)c(=O)n(-c2ccccc2)n1C
13.1 min	Cc1ccc(-n2cccc2)c(O)c1
12.3 min	O=C1CCCc2c1[nH]c1ccccc21
7.87 min	NCc1nccc2ccccc12
17.8 min	O=C(Nc1ccc(C(=O)c2ccccc2)cc1)c1ccc(-c2ccccc2)cc1

SMILES	LC retention time
NCCc1ccccn1	6.83 min
C[N+](C)(C)c1ccccc1	7 min
Cc1ccc2c(c1N)C(=O)c1ccccc1C2=O	14.9 min
CC(C)CC(C)N (stereo not given)	7.77 min
CCCCCCn1c2ccccc2c2cc(C(C)=O)ccc21	20 min
CN(C)c1ccc(CCN)cc1	7.22 min
Cc1cnc[nH]1	5.66 min
CN1CCC23CCCCC2C1Cc1ccc(O)cc13 (stereo not given)	9.18 min
